Data from PubChem BioAssay AID1259407 (Chemical Carcinogenesis Research Information System (CCRIS), 2018).
The source made the active and inactive calls. How the calls were made is not given here.

System: CCRIS mutagenicity, Ames/micronucleus/aberration tests
Test: CCRIS mutagenicity studies
[1] = Test System: AMES SALMONELLA TYPHIMURIUM, Strain/Indicator: TA100, Metabolic Activation: NONE, Method: STANDARD PLATE
[2] = Test System: AMES SALMONELLA TYPHIMURIUM, Strain/Indicator: TA1537, Metabolic Activation: NONE, Method: STANDARD PLATE

| Compound | mutagenic call [1] | mutagenic call (Test System: AMES SALMONELLA TYPHIMURIUM, Strain/Indicator: TA100, Metabolic Activation: S-9, Method: STANDARD PLATE) | mutagenic call [2] | mutagenic call (Test System: AMES SALMONELLA TYPHIMURIUM, Strain/Indicator: TA1537, Metabolic Activation: S-9, Method: STANDARD PLATE) | mutagenic call (Test System: AMES SALMONELLA TYPHIMURIUM, Strain/Indicator: TA1530, Metabolic Activation: NONE, Method: STANDARD PLATE) | mutagenic call (Test System: AMES SALMONELLA TYPHIMURIUM, Strain/Indicator: TA98, Metabolic Activation: HAMSTER, LIVER, S-9, AROCLOR 1254, Method: STANDARD PLATE) | mutagenic call (Test System: AMES SALMONELLA TYPHIMURIUM, Strain/Indicator: TA98, Metabolic Activation: NONE, Method: STANDARD PLATE) | mutagenic call (Test System: AMES SALMONELLA TYPHIMURIUM, Strain/Indicator: TA98, Metabolic Activation: RAT, LIVER, S-9, AROCLOR 1254, Method: STANDARD PLATE) | mutagenic call (Test System: AMES SALMONELLA TYPHIMURIUM, Strain/Indicator: TA100, Metabolic Activation: HAMSTER, LIVER, S-9, AROCLOR 1254, Method: STANDARD PLATE) | mutagenic call (Test System: AMES SALMONELLA TYPHIMURIUM, Strain/Indicator: TA100, Metabolic Activation: RAT, LIVER, S-9, AROCLOR 1254, Method: STANDARD PLATE) | mutagenic call (Test System: AMES SALMONELLA TYPHIMURIUM, Strain/Indicator: TA1535, Metabolic Activation: HAMSTER, LIVER, S-9, AROCLOR 1254, Method: STANDARD PLATE) | mutagenic call (Test System: AMES SALMONELLA TYPHIMURIUM, Strain/Indicator: TA1535, Metabolic Activation: NONE, Method: STANDARD PLATE) | mutagenic call (Test System: AMES SALMONELLA TYPHIMURIUM, Strain/Indicator: TA1535, Metabolic Activation: RAT, LIVER, S-9, AROCLOR 1254, Method: STANDARD PLATE) | mutagenic call (Test System: AMES SALMONELLA TYPHIMURIUM, Strain/Indicator: TA1537, Metabolic Activation: HAMSTER, LIVER, S-9, AROCLOR 1254, Method: STANDARD PLATE) | mutagenic call (Test System: AMES SALMONELLA TYPHIMURIUM, Strain/Indicator: TA1537, Metabolic Activation: RAT, LIVER, S-9, AROCLOR 1254, Method: STANDARD PLATE) | mutagenic call (Test System: AMES SALMONELLA TYPHIMURIUM, Strain/Indicator: TA1538, Metabolic Activation: HAMSTER, LIVER, S-9, AROCLOR 1254, Method: STANDARD PLATE) | mutagenic call (Test System: AMES SALMONELLA TYPHIMURIUM, Strain/Indicator: TA1538, Metabolic Activation: NONE, Method: STANDARD PLATE) | mutagenic call (Test System: AMES SALMONELLA TYPHIMURIUM, Strain/Indicator: TA1538, Metabolic Activation: RAT, LIVER, S-9, AROCLOR 1254, Method: STANDARD PLATE) | mutagenic call (Test System: MOUSE LYMPHOMA, Strain/Indicator: L5178Y (TK+/TK-), Metabolic Activation: NONE, Method: SUSPENSION/PLATE) | mutagenic call (Test System: MOUSE LYMPHOMA, Strain/Indicator: L5178Y (TK+/TK-), Metabolic Activation: RAT, LIVER, S-9, AROCLOR 1254, Method: SUSPENSION/PLATE) |
| --- | --- | --- | --- | --- | --- | --- | --- | --- | --- | --- | --- | --- | --- | --- | --- | --- | --- | --- | --- | --- |
| CCCC(=O)Nc1snc2cc(Cl)ccc12 | inactive; negative | inactive; negative | inactive; negative | inactive; negative | – | – | – | – | – | – | – | – | – | – | – | – | – | – | – | – |
| CCOC(=O)CN=[N+]=[N-] | – | – | – | – | active; positive | – | – | – | – | – | – | – | – | – | – | – | – | – | – | – |
| CCCCCCCCCC/C=C/C1CC(=O)OC1=O (configuration not stated) | inactive; negative | – | inactive; negative | – | – | inactive; negative | inactive; negative | inactive; negative | inactive; negative | inactive; negative | inactive; negative | inactive; negative | inactive; negative | inactive; negative | inactive; negative | inactive; negative | inactive; negative | inactive; negative | inactive; negative. reevaluation of results: inconclusive | inactive; negative. reevaluation of results: negative |
